# Assay results: publication PMC4368105, “Oleic Acid Metabolism via a Conserved Cytochrome P450 System-Mediated ω-Hydroxylation in the Bark Beetle-Associated Fungus Grosmannia clavigera” (PLoS ONE, 2015)
# Experiments:
# [1] = target: T1, GsCYP630B18 with GsCPR1 (RS1) (Leptographium clavigerum, UniProt F0XBA3); assay: reconstituted membranes, LC/MS of 18-hydroxyoleic acid product; format: biochemical; conditions: NADPH, 50 μM oleic acid, pH 7.4, room temperature, 1 h; GsCPR1 as redox partner
# T1 construct: gene CMQ_5365; with NADPH--cytochrome P450 reductase
# T1 sequence (F0XBA3 1-522): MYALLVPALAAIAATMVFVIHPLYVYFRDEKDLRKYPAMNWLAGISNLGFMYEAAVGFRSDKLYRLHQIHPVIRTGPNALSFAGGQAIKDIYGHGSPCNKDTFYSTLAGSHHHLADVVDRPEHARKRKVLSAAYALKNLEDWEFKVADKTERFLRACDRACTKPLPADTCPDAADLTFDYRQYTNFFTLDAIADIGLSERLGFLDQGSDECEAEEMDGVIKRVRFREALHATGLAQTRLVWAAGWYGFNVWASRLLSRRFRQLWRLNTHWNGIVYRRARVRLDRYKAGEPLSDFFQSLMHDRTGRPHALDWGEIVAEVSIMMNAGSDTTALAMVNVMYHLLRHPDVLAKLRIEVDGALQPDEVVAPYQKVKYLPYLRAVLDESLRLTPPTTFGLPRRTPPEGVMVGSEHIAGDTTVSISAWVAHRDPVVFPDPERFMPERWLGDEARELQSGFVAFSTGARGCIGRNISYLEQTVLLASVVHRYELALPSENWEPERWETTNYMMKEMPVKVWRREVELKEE
# T1 sequence (F0XUV1 1-690 partner): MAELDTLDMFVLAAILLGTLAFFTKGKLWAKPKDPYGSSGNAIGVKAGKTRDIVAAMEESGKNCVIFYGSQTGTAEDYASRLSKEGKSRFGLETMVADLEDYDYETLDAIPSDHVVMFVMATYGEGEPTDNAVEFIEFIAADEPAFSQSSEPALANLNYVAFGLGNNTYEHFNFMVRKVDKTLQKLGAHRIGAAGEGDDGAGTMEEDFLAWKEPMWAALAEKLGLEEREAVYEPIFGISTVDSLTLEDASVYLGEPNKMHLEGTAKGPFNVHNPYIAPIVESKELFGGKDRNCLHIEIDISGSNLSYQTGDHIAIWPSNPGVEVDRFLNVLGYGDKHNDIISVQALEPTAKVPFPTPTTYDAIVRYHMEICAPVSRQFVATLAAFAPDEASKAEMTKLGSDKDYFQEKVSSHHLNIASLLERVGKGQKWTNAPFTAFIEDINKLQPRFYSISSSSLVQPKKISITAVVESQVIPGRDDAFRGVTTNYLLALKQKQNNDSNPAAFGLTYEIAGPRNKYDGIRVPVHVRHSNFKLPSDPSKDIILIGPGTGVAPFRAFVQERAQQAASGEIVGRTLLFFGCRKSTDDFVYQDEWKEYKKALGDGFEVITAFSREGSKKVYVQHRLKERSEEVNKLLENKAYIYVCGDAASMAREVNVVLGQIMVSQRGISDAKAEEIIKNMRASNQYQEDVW
# [2] = target: T2, GsCYP630B18 with GsCPR2 (RS2) (Leptographium clavigerum, UniProt F0XBA3); assay: as above; format: biochemical; conditions: NADPH, 50 μM oleic acid, pH 7.4, room temperature, 1 h; GsCPR2 as redox partner
# T2 construct: gene CMQ_5365; with NADPH--cytochrome P450 reductase
# T2 sequence (F0XBA3 1-522): T1 sequence (F0XBA3 1-522)
# T2 sequence (F0XBA4 1-695 partner): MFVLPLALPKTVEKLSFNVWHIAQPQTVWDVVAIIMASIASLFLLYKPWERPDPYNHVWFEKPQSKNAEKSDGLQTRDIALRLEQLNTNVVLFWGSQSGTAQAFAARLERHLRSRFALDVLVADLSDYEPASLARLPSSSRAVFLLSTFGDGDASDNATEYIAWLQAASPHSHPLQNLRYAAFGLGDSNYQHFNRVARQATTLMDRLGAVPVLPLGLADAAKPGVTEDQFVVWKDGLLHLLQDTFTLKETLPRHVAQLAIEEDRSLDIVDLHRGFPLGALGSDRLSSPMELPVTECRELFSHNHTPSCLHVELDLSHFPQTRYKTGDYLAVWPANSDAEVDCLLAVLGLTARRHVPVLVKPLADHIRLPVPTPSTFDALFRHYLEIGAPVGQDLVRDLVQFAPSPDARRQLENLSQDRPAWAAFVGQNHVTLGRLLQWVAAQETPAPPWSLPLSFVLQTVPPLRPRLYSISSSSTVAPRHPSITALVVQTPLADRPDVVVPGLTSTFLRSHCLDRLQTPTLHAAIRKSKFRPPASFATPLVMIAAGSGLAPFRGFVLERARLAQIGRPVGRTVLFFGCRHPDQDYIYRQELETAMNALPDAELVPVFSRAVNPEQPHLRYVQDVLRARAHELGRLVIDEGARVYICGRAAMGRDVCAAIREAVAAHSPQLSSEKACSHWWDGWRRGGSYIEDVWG
smiles,measurement,setting,value
CCCCCCCC/C=C\CCCCCCCC(=O)O [oleic acid],"reconstituted membranes, LC/MS of 18-hydroxyoleic acid product",[1],"CYP630B18 converted oleic acid, but none of the other tested compounds"
same,"reconstituted membranes, LC/MS of 18-hydroxyoleic acid product",[2],"CYP630B18 converted oleic acid, but none of the other tested compounds"
